How the values were obtained:
[1] = Stability in human liver S9 fraction (HLS9); format: in vitro ADME; conditions: human liver S9 0.4 mg protein/mL, 5 μM test compound, 37° C.; for microsomal CLint at 5 μM: liver S9 fraction, pH 7.4
Experimental: (§1) Stability in Human Intestinal S9 Fraction (HIS9) and in Human Liver S9 Fraction (HLS9),
(§2) Stock solutions of each test compound (10 mM) were prepared in DMSO and stored at −20° C. Prior to the start of the experiment, the test compounds were diluted to 500 μM in 50% acetonitrile in water. The reaction mixture was prepared in a total volume of 250 μL containing 5 mM MgC2, 1 mM NADPH and 5 μM test compound in 50 mM potassium phosphate buffer (pH 7.4). The reaction was initiated by addition of human liver or intestinal S9 fraction with a final concentration of 0.4 mg protein/mL (Xeno Tech). The reaction mixture was incubated on an orbital shaker at 37° C. At the desired time points (0, 10, 30 and 60 minutes) aliquots of 50 μL were taken and the reaction was stopped by mixing with 150 μL acetonitrile containing internal standard. Standard solutions of each test compound were prepared from the 500 μM solution by diluting the solution to a final concentration of 5 μM in boiled human S9 (0.4 mg protein/mL), 5 mM MgCl2 and 50 mM potassium phosphate buffer (pH 7.4). The standards and samples were kept on ice for 30 min then centrifuged at 3 000 g for 20 minutes at 10° C., there after 10 μL of supernatant was mixed with 200 μL 50% acetonitrile in water. 0.5 μM of each test compound in 50% acetonitrile in water was injected into the LC/MS-MS to determine the daughter ion, declustring potential (DP), collision energy (CE) and collision cell exit potential (CXP) in order to develop a LC/MS-MS method. The compounds were separated using a C18 column with a QTRAP5500 system. The mobile phase consisted of solvent A (98% water, 2% acetonitrile, 0.1% acetic acid or 10 mM ammonium acetate) and solvent B (80% acetonitrile, 20% water, 0.1% acetic acid or 10 mM ammonium acetate). Elution of the compounds was performed by using a gradient of solvent B from 0% to 100%. 5 μL of standard points and samples were injected for analysis with QTRAP5500.
(§3) The amount of parent compound was determined on the basis of the peak area for each time point compared to standard which was set to 5 μM. Intrinsic clearance (CLint) and half-life (t1/2) were determined from the disappearance curves of the test compound using Excel software.

Huh7 = test: Cell cytotoxicity assay, HUH7; format: cell-based; conditions: Huh7 cells, 5 days at 37° C., XTT dye
Experimental: (§4) Cells were seeded 24 hours prior to compound addition. Each test compound (serially diluted from 100 μM) was added to Huh7 (1.5×10^4 cells/well) or HepG2 (1.5×10^4 cells/well), and allowed to incubate for 5 days at 37° C. A medium only control was used to determine the minimum absorbance value and an untreated cell value. At the end of the growth period, XTT dye from Polysciences Europe GmbH was added to each well. The absorbance at 450 nm with a reference wavelength of 600 nm was read with a Sunrise (Tecan) using the medium only control wells as blanks. The 50% inhibition value (CC50) was determined by comparing the degree of inhibition (compared to cell control) plotted against compound concentration. Results from the dilution series were fitted to a sigmoidal dose-response curve.
(§5) Compounds of the invention were evaluated in these assays to assess the stability in human intestinal S9 fraction (HIS9) and human liver S9 fraction (HLS9), and for Cell Cytotoxicity in HUH7, HEP3B and HEPG2 cells.

[2] = Stability in human intestinal S9 fraction (HIS9); format: in vitro ADME; conditions: human intestinal S9 0.4 mg protein/mL, 5 μM test compound, 37° C.; for microsomal CLint at 5 μM: intestinal S9 fraction, pH 7.4
Experimental: as §1, §2, §3

HepG2 = test: Cell cytotoxicity assay, HEPG2; format: cell-based; conditions: HepG2 cells, 5 days at 37° C., XTT dye
Experimental: as §4, §5

| Structure (SMILES) | CLint Liver S9 [1] | CLint Intestinal S9 [2] | CC50 (Huh7) | CC50 (HepG2) | microsomal CLint at 5 μM [1] | microsomal CLint at 5 μM [2] |
| --- | --- | --- | --- | --- | --- | --- |
| CCC[C@@H](C)OC(=O)[C@H](C)NP(=O)(OC[C@H]1OC[C@@H](n2ccc(N)nc2=O)O1)Oc1ccccc1 (single isomer, unassigned) [30 dia-2] |  |  |  |  | 120 µL/min/mg | 11 µL/min/mg |
| CC[C@H](C)OC(=O)[C@H](C)NP(=O)(OC[C@H]1OC[C@@H](n2ccc(N)nc2=O)O1)Oc1ccccc1 (single isomer, unassigned) [31 dia-2] |  | 6 µL/min/mg |  |  | 8 µL/min/mg |  |
| CC[C@@H](C)OC(=O)[C@H](C)NP(=O)(OC[C@H]1OC[C@@H](n2cc(F)c(N)nc2=O)O1)Oc1ccccc1 (single isomer, unassigned) [32 dia-2] |  |  |  |  | 27 µL/min/mg | 8 µL/min/mg |
| Nc1ccn([C@@H]2CO[C@H](COP(=O)(N[C@@H](Cc3ccccc3)C(=O)OC3CCCCC3)Oc3ccc(Br)cc3)O2)c(=O)n1 (single isomer, unassigned; dia-1) [7 dia-1] | 148 µL/min/mg | 147 µL/min/mg | 1020 nM | 240 nM |  |  |
| CCCC(CCC)COC(=O)[C@H](C)NP(=O)(OC[C@H]1OC[C@@H](n2ccc(N)nc2=O)O1)Oc1ccccc1 (single isomer, unassigned; dia-1) [8 dia-1] |  |  | 123 nM | 7 nM |  |  |
| CCC(CC)COC(=O)[C@H](C)NP(=O)(OC[C@H]1OC[C@@H](n2ccc(N)nc2=O)O1)Oc1ccccc1 (single isomer, unassigned; dia-1) [15 dia-1] | 167 µL/min/mg | 87 µL/min/mg | 25 nM | 37 nM |  |  |
| CC(C)OC(=O)[C@@H](C)NP(=O)(OC[C@H]1OC[C@@H](n2ccc(N)nc2=O)O1)Oc1ccccc1 (single isomer, unassigned; dia-1) [17 dia-1] | 6 µL/min/mg | 6 µL/min/mg | 50000 nM | 50000 nM |  |  |
| CCC[C@H](C)OC(=O)[C@H](C)NP(=O)(OC[C@H]1OC[C@@H](n2ccc(N)nc2=O)O1)Oc1ccccc1 (single isomer, unassigned; dia-1) [20 dia-1] | 45 µL/min/mg | 21 µL/min/mg | 216 nM | 74 nM |  |  |
| CCC(CC)OC(=O)[C@H](C)NP(=O)(OC[C@H]1OC[C@@H](n2ccc(N)nc2=O)O1)Oc1ccccc1 (single isomer, unassigned; dia-1) [21 dia-1] | 61 µL/min/mg | 29 µL/min/mg | 574 nM | 163 nM |  |  |
| COC(=O)[C@H](C)NP(=O)(OC[C@H]1OC[C@@H](n2ccc(N)nc2=O)O1)Oc1ccc(Br)cc1 (single isomer, unassigned; dia-1) [27 dia-1] | 38 µL/min/mg | 11 µL/min/mg | 1440 nM | 151 nM |  |  |
| CC[C@@H](C)OC(=O)[C@H](C)NP(=O)(OC[C@H]1OC[C@@H](n2ccc(N)nc2=O)O1)Oc1cccc(C2CCC2)c1 (single isomer, unassigned; dia-1) [33 dia-1] | 180 µL/min/mg | 27 µL/min/mg |  |  |  |  |
| Nc1ccn([C@@H]2CO[C@H](COP(=O)(N[C@@H](Cc3ccccc3)C(=O)OC3CCCCC3)Oc3ccc(Br)cc3)O2)c(=O)n1 (single isomer, unassigned; dia-2) [7 dia-2] | 60 µL/min/mg | 27 µL/min/mg | 134 nM | 58 nM |  |  |
| CC(C)OC(=O)[C@@H](C)NP(=O)(OC[C@H]1OC[C@@H](n2ccc(N)nc2=O)O1)Oc1ccccc1 (single isomer, unassigned; dia-2) [17 dia-2] | 6 µL/min/mg |  | 50000 nM |  |  |  |
| CCCC(CCC)COC(=O)[C@H](C)NP(=O)(OC[C@H]1OC[C@@H](n2ccc(N)nc2=O)O1)Oc1ccc(Br)cc1 (single isomer, unassigned; dia-2) [23 dia-2] | 300 µL/min/mg | 20 µL/min/mg |  |  |  |  |
| CC[C@@H](C)OC(=O)[C@H](C)NP(=O)(OC[C@H]1OC[C@@H](n2ccc(N)nc2=O)O1)Oc1cccc(C2CCC2)c1 (single isomer, unassigned; dia-2) [33 dia-2] | 230 µL/min/mg | 75 µL/min/mg |  |  |  |  |

The next lines start with results.

| CLint Liver S9 [1] | CLint Intestinal S9 [2] | Structure (SMILES) | CC50 (Huh7) | CC50 (HepG2) | microsomal CLint at 5 μM [1] | microsomal CLint at 5 μM [2] |
| --- | --- | --- | --- | --- | --- | --- |
| 85 µL/min/mg | 27 µL/min/mg | CCCC(CCC)COC(=O)C(Cc1ccccc1)NP(=O)(OCC1OCC(n2ccc(N)nc2=O)O1)Oc1ccccc1 (mixture of isomers) [13 diamix 4:1] | 663 nM | 163 nM |  |  |
| 32 µL/min/mg | 21 µL/min/mg | CC(C)OC(=O)[C@H](C)NP(=O)(OC[C@H]1OC[C@@H](n2ccc(N)nc2=O)O1)Oc1cccc2ccccc12 (single isomer, unassigned; dia-1) [5 dia-1] | 465 nM | 107 nM |  |  |
| 91 µL/min/mg | 36 µL/min/mg | C[C@H](NP(=O)(OC[C@H]1OC[C@@H](n2ccc(N)nc2=O)O1)Oc1cccc2ccccc12)C(=O)OC1CCCCC1 (single isomer, unassigned; dia-1) [6 dia-1] | 258 nM | 92 nM |  |  |
| 133 µL/min/mg | 171 µL/min/mg | C[C@H](NP(=O)(OC[C@H]1OC[C@@H](n2ccc(N)nc2=O)O1)Oc1cccc2ccccc12)C(=O)OCc1ccccc1 (single isomer, unassigned; dia-1) [9 dia-1] | 164 nM | 23 nM |  |  |
| 182 µL/min/mg | 300 µL/min/mg | Nc1ccn([C@@H]2CO[C@H](COP(=O)(N[C@@H](Cc3ccccc3)C(=O)OCc3ccccc3)Oc3cccc(C4CC4)c3)O2)c(=O)n1 (single isomer, unassigned; dia-1) [12 dia-1] | 4330 nM | 481 nM |  |  |
| 88 µL/min/mg | 30 µL/min/mg | CCCC(CCC)COC(=O)[C@H](C)NP(=O)(OC[C@H]1OC[C@@H](n2ccc(N)nc2=O)O1)Oc1cccc2ccccc12 (single isomer, unassigned; dia-1) [14 dia-1] | 216 nM | 16 nM |  |  |
| 19 µL/min/mg | 26 µL/min/mg | C[C@H](NP(=O)(OC[C@H]1OC[C@@H](n2ccc(N)nc2=O)O1)Oc1ccccc1)C(=O)OCc1ccccc1 (single isomer, unassigned; dia-1) [19 dia-1] | 91 nM | 18 nM |  |  |
| 49 µL/min/mg | 52 µL/min/mg | C[C@H](NP(=O)(OC[C@H]1OC[C@@H](n2ccc(N)nc2=O)O1)Oc1cccc2ccccc12)C(=O)OC1CCCC1 (single isomer, unassigned; dia-1) [22 dia-1] | 33 nM | 12 nM |  |  |
| 31 µL/min/mg | 13 µL/min/mg | CC(C)OC(=O)[C@H](C)NP(=O)(OC[C@H]1OC[C@@H](n2ccc(N)nc2=O)O1)Oc1cccc2ccccc12 (single isomer, unassigned; dia-2) [5 dia-2] | 602 nM | 114 nM |  |  |
| 61 µL/min/mg | 25 µL/min/mg | C[C@H](NP(=O)(OC[C@H]1OC[C@@H](n2ccc(N)nc2=O)O1)Oc1cccc2ccccc12)C(=O)OC1CCCCC1 (single isomer, unassigned; dia-2) [6 dia-2] | 316 nM | 48 nM |  |  |
| 94 µL/min/mg | 127 µL/min/mg | C[C@H](NP(=O)(OC[C@H]1OC[C@@H](n2ccc(N)nc2=O)O1)Oc1cccc2ccccc12)C(=O)OCc1ccccc1 (single isomer, unassigned; dia-2) [9 dia-2] | 158 nM | 16 nM |  |  |

— patent US11447511B2, “Dioxolane analogues of uridine for the treatment of cancer” (MEDIVIR AB, priority 2014, dated 2022)
